Reference: patent US20120003270A1, “6-SUBSTITUTED ISOFLAVONOID COMPOUNDS AND USES THEREOF” (priority 2008, published 2012)

Tests used:
[1] = test system: splenocytes (T and B cells); assay: Mitogen-stimulated splenocyte proliferation (MTT); assay type: cell-based, mouse; conditions: 10 μM, 3 day incubation, ConA or LPS
Description: (§1) Male Skh-1:HR1 (hairless) mice, approximately six weeks old were killed by cervical dislocation. Single cell suspensions were made from the spleen and erythrocytes were lysed in buffer (0.14M NH4Cl, 17 mM Tris, pH 7.2). The remaining splenocytes were cultured in RPMI-1640 (Gibco) supplemented with 10% (v:v) FBS, 200 mM L-glutamine, penicillin/streptomycin and […] 2-mercaptoethanol. Splenocytes were added to quadruplicate wells containing either concanavalin A (ConA, Sigma-Aldrich—0.4 μg/well), LPS (Sigma-Aldrich—1 μg/well) or no mitogen, as well 10 μM of test compound in DMSO. Samples were analysed after a 3 day incubation at 37° C. in 5% CO2 in air. Methylthiazoletetrazolium (MTT) is bioreduced by viable cells into a coloured formazan product that is soluble in DMSO. Thus the quantity of formazan product is directly proportional to the number of living cells in culture, and can be measured using a spectrophotometer at 570 nm. MTT was added to each well, incubated for a further 4 hrs and then colour developed with 0.04N HCl in isopropanol. Culture supernatants were stored after collection at −80° C. and both T and B cells analysed by ELISA (BD Biosciences) for IFN-γ (a Th-1 cytokine) and for T cells alone, IL-6 (a Th-2 cytokine).

HCAECs = assay: HCAEC cell viability; assay type: cell-based, human; conditions: 10 μM, 24 hr incubation
[2] = Interaction with Cu(II) (UV/Vis absorption spectra); assay type: physicochemical; conditions: 25 μM compound + 25 μM CuSO4, 1:1 molar ratio, pH 7.2
Description: The non-specific binding of compound (1) to Cu^++ was also examined in duplicate on different days. A stock solution of test compounds was prepared in DMSO at a concentration of 5 mM. The UV/Vis absorption spectra of was then determined between 200 and 800 nm after dilution of test compounds to 25 μM in phosphate buffer (10 mM, pH 7.2, chelex treated). Interactions of the compounds with Cu(II) were determined by scanning a second overlaying absorption spectrum over 200 to 800 nm, in which 25 μM CuSO4 solution was added to a fresh 25 μM solution of test compounds and mixed for 20 seconds.

TXA2 = TXA2 synthesis in RA-stimulated U937 cells; assay type: cell-based, human; conditions: A23187 0.5 μM, 30 min
Description: (§2) U937 cells were thawed and resuspended in RPMI and 10% FCS at 2×10^5 cells per ml. The cells were incubated in 5% CO2 at 37° C. and expanded in growing culture to at least 6.4×10^7 total cells. The cells were then resuspended in fresh medium and cultured with 5 μM retinoic acid (RA) at 2×10^5 cells per ml for a further 3 days (72 h). RA treated cells were washed 2× in serum-free RPMI and resuspended in serum-free medium at 5×10^6 cells per ml. The cells were aliquotted into Teflon tubes at 1 ml per tube. Working stock solutions of compounds (1) and (3) were prepared at 0.1 mM, 1 mM and 10 mM as described above. For each working dilution, 10 μl was added to 1 ml cells to achieve a final concentration of 0 (DMSO alone), 1, 10, and 100 μM for each test compound. Cells were incubated in triplicate with each concentration of test compound for 15 min at 37° C. After 15 min pre-incubation, each 1 ml tube of cells received 5 μl of a […] solution of the calcium ionophore A23187 (to achieve 0.5 μM A23187). Incubation at 37° C. was continued for a further 30 min. After incubation, supernatants were collected by centrifugation at 2000 rpm for 10 min and stored at −20° C. until required for assay.

TNFα = TNFα synthesis in RAW 264.7 (ELISA); assay type: cell-based, mouse; conditions: LPS 50 ng/ml, 16 hrs
Description: The mouse macrophage cell line RAW 264.7 was cultured in DMEM supplemented with foetal calf serum (FCS), 2 mM glutamine and 50 U/ml penicillin/streptomycin. Cells were treated with either test compounds (in 0.025% DMSO) or vehicle alone, and added one hour before 50 ng/ml LPS. After incubation for 16 hrs, culture media was collected for PGE2 or TXB2 measurement by ELISA (Cayman Chemical), and TNFα measurement using an ELISA (Becton Dickinson).

AA-induced ear swelling = assay: Murine ear inflammation assay, arachidonic acid (AA); assay type: in vivo, mouse; conditions: 25 mg/kg i/p; for Change in ear thickness (mean ± SD, ×0.01 mm): 1 hr post-AA
Description: Groups of 5-6 female BALB/c mice (ARC, WA, Australia), weighing 15-21 g were injected intraperitoneally (i/p) with selected compounds of the formula (I) at 25 mg/kg delivered in polyethylene glycol (PEG) 400: phosphate buffered saline (PBS) 1:1 or ethanol: propanediol:PBS 4:9:7 either 30 min prior to or immediately before the inflammogen was applied to the ears. Mice were anaesthetised using isoflurane and baseline thickness of both ears was measured using a spring micrometer. Each mouse received a total of […] of either AA in ethanol (50 mg/ml or 200 mg/ml) or PMA in either ethanol or acetone (0.2 mg/ml) applied to the inner and outer surfaces of each pinna (i.e. 0.5 mg or 2 mg AA or 2 μg PMA per ear). Mice were anaesthetised again to re-measure the ears at 1 hr post-AA application and 5 hr after PMA. The difference in ear swelling pre- and post-application of inflammogen for each ear was calculated, and the average for the two ears of each mouse taken. The difference in mean swelling of each test group compared to the group given vehicle alone was calculated using a general ANOVA using Dunnett's Multiple Comparison test when multiple compounds were tested in the one experiment or a two-tailed unpaired t-test when only one compound was tested (Prism 4, Graphpad Software).

IFN-γ and IL-6 = assay: Splenocyte cytokine production (ELISA); assay type: cell-based, mouse; conditions: 10 μM, 3 day incubation, culture supernatant
Description: as §1

PGE2 = PGE2 synthesis in RA-stimulated U937 cells; assay type: cell-based, human; conditions: A23187 0.5 μM, 30 min
Description: as §2

RAW 264.7 = assay: Toxicity in RAW 264.7; assay type: cell-based, mouse

SMILES | Effect on splenocyte (T and B cell) numbers [1] | Cell viability (HCAECs) | Interaction with Cu^2+ [2] | TXB2 (TXA2; 1 μM) | TXB2 (TXA2; 10 μM) | TXB2 (TXA2; 100 μM) | TNFα (TNFα; 1 μM) | TNFα (TNFα; 10 μM) | % Change compared with vehicle (AA-induced ear swelling) | Change in ear thickness (mean ± SD, ×0.01 mm) (AA-induced ear swelling) | Effect on cytokine synthesis (INF-γ, IL-6) (IFN-γ and IL-6) | PGE2 (PGE2; 1 μM) | PGE2 (PGE2; 10 μM) | PGE2 (PGE2; 100 μM) | Effect on the viability of RAW 264.7 cells (RAW 264.7) | IC50 (RAW 264.7; Mus musculus, RAW264.7)
CN(C)Cc1cc2c(cc1O)OCC(c1ccc(O)cc1)=C2 [Compound (1)] | markedly and significantly immunosuppressive to T cells and to a lesser extent, B cells | cell viability was unaffected | did not interact with Cu^2+ | 35.833 ± 1.866 pg | 41.697 ± 2.275 pg | 21.708 ± 5.439 pg | 40002.31 ± 694.8 pg/mL | 41958.94 ± 837.04 pg/mL | −7.0% | 24.1 ± 0.1 ×0.01 mm | concomitant reduction on the synthesis of INF-γ and IL-6 | 1.485 ± 0.175 pg | 1.58 ± 0.145 pg | 0.881 ± 0.116 pg | little effect on the viability | 53.9 ± 1.2 µM
O=C(O)C1CCCN1Cc1cc2c(cc1O)OCC(c1ccc(O)cc1)=C2 (centres unmarked) [Compound (3)] | little effect on cell numbers | cell viability was unaffected | – | 18.434 ± 0.367 pg | 26.276 ± 9.76 pg | 12.668 ± 3.506 pg | 26677.52 ± 815.64 pg/mL | 45429.44 ± 1630.68 pg/mL | −5.9% | 22.2 ± 1.9 ×0.01 mm | did decrease the cytokines produced by T cells in particular | 1.025 ± 0.114 pg | 1.271 ± 0.212 pg | 1.39 ± 0.227 pg | – | –
